The values below come from ChEMBL document CHEMBL1201862, “PubChem BioAssay data set” (2004).

Calls of active or inactive are those of the source.

One test addresses T1, Aminopeptidase N (Plasmodium falciparum FcB1/Columbia, UniProt O96935).
T1 sequence (O96935 whole entry): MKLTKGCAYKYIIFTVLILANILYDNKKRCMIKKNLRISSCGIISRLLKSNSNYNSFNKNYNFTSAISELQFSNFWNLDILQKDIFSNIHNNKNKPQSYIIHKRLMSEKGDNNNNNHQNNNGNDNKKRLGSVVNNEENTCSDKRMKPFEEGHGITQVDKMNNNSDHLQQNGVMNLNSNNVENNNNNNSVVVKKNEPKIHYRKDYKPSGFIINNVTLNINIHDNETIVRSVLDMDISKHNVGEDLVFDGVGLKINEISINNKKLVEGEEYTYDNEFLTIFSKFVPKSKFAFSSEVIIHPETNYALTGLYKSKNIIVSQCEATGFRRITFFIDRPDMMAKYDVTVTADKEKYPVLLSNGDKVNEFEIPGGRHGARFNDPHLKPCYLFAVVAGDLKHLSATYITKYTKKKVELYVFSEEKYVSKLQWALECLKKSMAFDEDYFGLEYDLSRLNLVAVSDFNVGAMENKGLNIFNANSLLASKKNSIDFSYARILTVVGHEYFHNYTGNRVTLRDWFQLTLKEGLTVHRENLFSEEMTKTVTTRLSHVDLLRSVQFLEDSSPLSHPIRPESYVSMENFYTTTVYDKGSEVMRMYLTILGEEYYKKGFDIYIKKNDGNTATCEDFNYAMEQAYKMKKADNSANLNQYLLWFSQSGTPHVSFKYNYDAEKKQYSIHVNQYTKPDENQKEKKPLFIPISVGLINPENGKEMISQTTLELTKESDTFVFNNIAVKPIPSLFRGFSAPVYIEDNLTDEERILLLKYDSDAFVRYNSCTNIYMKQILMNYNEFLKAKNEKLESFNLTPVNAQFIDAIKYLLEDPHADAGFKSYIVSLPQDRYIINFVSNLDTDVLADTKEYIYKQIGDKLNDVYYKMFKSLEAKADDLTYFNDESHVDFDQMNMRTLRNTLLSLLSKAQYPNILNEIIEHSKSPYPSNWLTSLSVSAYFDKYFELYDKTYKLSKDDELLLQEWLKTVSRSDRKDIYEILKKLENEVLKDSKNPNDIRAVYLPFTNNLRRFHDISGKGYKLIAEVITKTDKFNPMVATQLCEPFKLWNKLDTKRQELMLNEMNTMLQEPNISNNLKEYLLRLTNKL
Nature of the test: malaria alanyl aminopeptidase activity blockers – biochemical, fluorogenic H-Leu-NHMec substrate, 1536-well (AID 1445). Further details: species or system Plasmodium falciparum 3D7, 3D7.

A further test deals with Prothrombin (Homo sapiens, UniProt P00734). Nature of the test: Thrombin 1536 HTS Dose Response Confirmation. [Related pubchem assays: 1046 (Thrombin 1536 HTS; hits were confirmed in this assay)]. Format: functional.
The target of another test is T2, Leucine aminopeptidase (Plasmodium falciparum 3D7, UniProt Q8IL11).
T2 sequence (Q8IL11 whole entry): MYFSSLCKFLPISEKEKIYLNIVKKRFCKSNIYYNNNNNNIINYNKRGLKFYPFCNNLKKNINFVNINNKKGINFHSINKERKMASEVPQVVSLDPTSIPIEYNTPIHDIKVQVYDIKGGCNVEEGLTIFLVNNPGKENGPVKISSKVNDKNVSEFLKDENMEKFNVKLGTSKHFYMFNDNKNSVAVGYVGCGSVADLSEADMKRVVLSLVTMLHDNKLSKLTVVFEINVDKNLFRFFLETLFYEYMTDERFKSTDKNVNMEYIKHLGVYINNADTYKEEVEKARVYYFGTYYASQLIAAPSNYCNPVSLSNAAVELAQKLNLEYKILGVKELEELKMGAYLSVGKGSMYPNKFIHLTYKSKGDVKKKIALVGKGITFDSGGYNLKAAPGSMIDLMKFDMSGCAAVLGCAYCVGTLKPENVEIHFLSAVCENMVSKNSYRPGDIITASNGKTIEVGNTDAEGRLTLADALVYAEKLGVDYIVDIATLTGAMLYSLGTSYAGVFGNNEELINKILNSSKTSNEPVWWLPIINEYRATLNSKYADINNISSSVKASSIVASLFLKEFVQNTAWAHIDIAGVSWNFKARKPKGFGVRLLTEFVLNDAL
Nature of the test: P. falciparum M17LAP inhibitors, primary screen, biochemical, fluorogenic H-Leu-NHMec substrate, 1536-well (AID 1619). Format: functional.

The target of test [1] is Voltage-dependent T-type calcium channel subunit alpha-1H (Homo sapiens, UniProt O95180). Format: functional.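 Also: channel activity triggered by adding a high calcium stimulation buffer.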
Sequence of Voltage-dependent T-type calcium channel subunit alpha-1H (O95180 whole entry): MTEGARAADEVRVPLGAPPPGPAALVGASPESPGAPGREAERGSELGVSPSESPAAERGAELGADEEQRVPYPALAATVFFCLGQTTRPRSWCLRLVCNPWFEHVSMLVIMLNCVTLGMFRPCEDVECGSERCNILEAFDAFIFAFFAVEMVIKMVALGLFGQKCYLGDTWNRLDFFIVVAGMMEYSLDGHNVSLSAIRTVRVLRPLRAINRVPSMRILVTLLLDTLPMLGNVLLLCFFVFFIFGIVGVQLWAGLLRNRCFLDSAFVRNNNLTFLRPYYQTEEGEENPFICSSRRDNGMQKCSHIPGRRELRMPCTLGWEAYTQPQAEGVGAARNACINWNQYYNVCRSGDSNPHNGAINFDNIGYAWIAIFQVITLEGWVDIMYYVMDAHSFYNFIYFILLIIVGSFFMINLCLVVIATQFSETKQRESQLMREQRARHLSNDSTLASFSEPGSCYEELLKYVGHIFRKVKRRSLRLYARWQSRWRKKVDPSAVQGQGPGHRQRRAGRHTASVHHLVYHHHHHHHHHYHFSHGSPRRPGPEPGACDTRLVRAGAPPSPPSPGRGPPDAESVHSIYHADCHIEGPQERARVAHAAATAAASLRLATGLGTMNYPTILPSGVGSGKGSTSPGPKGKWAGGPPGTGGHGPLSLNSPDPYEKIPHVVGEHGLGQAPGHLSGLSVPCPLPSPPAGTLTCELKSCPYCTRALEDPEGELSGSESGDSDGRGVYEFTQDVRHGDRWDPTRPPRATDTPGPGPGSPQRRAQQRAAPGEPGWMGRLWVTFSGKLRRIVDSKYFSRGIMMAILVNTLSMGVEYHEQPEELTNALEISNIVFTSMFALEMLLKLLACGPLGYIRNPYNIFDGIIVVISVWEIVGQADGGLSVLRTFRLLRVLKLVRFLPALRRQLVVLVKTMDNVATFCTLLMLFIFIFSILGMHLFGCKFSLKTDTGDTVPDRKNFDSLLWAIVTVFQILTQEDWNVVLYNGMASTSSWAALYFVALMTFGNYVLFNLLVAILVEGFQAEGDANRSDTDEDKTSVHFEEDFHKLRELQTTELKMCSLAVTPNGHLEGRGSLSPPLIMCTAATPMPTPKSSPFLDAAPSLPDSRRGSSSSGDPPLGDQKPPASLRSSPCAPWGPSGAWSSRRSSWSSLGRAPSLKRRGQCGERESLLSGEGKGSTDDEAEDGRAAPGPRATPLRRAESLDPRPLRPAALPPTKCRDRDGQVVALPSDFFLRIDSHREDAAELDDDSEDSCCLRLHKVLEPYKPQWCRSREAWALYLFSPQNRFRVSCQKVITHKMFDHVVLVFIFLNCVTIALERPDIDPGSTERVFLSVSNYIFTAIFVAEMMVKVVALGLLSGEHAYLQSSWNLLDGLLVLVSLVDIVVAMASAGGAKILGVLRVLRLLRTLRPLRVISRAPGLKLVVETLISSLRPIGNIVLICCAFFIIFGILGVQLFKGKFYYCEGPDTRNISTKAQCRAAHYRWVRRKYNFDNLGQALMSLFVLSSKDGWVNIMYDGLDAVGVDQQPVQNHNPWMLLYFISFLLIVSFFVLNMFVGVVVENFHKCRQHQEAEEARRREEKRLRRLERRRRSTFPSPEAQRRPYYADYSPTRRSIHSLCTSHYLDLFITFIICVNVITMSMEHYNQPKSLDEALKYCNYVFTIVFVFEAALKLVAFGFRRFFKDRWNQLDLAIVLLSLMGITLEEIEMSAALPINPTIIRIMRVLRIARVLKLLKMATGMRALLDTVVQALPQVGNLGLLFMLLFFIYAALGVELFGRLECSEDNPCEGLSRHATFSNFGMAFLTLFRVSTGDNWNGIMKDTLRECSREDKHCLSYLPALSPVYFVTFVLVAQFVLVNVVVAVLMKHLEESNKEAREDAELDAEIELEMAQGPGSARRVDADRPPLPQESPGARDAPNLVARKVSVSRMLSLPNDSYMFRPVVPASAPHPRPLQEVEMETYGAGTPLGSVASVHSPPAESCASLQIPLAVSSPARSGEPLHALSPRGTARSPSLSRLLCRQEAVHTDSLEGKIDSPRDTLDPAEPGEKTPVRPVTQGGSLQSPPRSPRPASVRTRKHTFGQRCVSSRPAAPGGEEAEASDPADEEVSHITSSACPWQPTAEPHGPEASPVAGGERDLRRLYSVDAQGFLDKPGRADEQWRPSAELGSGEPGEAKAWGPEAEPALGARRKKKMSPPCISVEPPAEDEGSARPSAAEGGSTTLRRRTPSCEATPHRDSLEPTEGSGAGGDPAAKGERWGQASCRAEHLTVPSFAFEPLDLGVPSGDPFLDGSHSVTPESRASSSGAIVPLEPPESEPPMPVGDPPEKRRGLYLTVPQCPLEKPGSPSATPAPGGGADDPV
Test [2] deals with T3, Short transient receptor potential channel 4 (Mus musculus, UniProt Q9QUQ5).
T3 sequence (Q9QUQ5 whole entry): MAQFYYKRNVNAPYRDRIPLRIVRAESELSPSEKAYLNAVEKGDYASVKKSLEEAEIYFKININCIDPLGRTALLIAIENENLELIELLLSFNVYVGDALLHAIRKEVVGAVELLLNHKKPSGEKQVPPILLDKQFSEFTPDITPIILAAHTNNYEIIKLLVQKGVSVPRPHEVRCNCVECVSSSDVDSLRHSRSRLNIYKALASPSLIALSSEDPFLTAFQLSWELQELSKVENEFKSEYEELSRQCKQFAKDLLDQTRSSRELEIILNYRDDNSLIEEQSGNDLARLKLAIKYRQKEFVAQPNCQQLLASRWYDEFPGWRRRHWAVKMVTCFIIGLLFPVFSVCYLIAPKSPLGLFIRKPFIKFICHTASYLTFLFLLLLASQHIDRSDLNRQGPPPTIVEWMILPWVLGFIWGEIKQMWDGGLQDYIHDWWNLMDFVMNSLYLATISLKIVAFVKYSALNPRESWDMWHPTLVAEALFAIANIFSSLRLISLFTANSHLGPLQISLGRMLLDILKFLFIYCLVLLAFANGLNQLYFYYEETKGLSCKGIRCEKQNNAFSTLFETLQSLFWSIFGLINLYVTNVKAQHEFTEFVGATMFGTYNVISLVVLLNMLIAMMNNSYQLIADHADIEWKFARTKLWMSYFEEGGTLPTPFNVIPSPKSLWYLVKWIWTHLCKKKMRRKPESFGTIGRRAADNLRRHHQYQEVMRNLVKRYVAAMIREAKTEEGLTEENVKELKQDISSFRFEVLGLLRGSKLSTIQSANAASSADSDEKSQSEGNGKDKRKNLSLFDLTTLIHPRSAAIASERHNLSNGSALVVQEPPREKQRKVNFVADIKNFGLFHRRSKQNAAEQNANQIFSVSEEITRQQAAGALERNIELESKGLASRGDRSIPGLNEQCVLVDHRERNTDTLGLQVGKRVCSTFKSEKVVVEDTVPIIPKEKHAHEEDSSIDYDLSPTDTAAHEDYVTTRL
Nature of the test: calcium entry via TRPC4 opening agents – cell-based, HEK293 TRPC4/mu-opioid, Fluo-4 calcium, dose response (AID 434937). Format: functional.

Test [3] is described as follows: THP-1 cell cytotoxicity, dose response, cytotoxicity control for non-replicating M. tuberculosis project (AID 489025). In kind it is functional.
Test [4] in a line: Vero E6 cell cytotoxicity, dose response, cytotoxicity control for non-replicating M. tuberculosis project, secondary assay (AID 492998). Format: functional, VeroE6. Particulars: Vero C1008.
In another test the target is T4, Protein RecA (Mycobacterium tuberculosis, UniProt P9WHJ3).
T4 sequence (P9WHJ3 whole entry): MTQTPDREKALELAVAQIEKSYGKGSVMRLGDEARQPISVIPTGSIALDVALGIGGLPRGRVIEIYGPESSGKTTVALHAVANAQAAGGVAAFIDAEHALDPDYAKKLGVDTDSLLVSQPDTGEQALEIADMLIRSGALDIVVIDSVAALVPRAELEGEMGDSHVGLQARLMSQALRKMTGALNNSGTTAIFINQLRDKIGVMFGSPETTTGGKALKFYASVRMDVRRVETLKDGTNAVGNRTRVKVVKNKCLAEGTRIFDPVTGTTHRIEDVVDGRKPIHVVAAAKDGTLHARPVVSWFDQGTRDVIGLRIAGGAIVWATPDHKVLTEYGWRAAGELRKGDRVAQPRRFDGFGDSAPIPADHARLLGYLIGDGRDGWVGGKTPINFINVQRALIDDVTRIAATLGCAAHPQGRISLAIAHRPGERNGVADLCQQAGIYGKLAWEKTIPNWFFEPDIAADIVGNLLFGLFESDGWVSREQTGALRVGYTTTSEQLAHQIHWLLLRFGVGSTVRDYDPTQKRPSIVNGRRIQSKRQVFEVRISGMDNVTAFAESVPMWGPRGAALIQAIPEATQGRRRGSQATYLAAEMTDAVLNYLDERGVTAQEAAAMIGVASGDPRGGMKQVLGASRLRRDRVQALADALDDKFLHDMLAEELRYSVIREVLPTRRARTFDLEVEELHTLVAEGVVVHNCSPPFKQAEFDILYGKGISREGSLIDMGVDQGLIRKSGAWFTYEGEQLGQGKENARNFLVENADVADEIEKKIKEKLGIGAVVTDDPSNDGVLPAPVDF
Nature of the test: Fluorescence Cell-Free Homogeneous Dose Retest to Identify Inhibitors of RecA-Intein Splicing Activity. [Related pubchem assays (depositor defined):AID2097, AID2223, AID489010, AID492950]. In kind it is functional.

Test [5] in a line: blockers of HIV-1 ZM109 envelope-driven cell-cell fusion – HeLa effector, CEM target cells, luciferase, cherry-pick, dose response (AID 652058).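 Also: luciferase signal from HIV-1 Env mediated cell-cell fusion of effector and target cells.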 In kind it is functional, cell-based.
Test [6] in a line: blockers of HIV-1 envelope-mediated cell-cell fusion – cherry-pick, dose response (AID 652057). In kind it is functional, cell-based.
Test [7] can be described thus: off-target signal loss in HeLa-CEM21 co-culture – HeLa F-luc CTL cells, cherry-picked, counter-screen for HIV-1 Env fusion inhibitor project, dose response (AID 652040).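 Also: potency for signal decrease marking cytotoxic or nonspecific inhibition.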 In kind it is functional, cell-based.
A short description of test [8]: HIV-1 AD8 envelope cell-cell fusion blockers – cherry-pick, dose response (AID 652062).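 Also: luciferase signal from cell-cell fusion driven by HIV-1 clade B AD8 Env; potency is for inhibitors of fusion seen as a drop in luminescence.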 Format: functional, cell-based.
The nature of the next test: cells. In kind it is functional.
A short description of test [9]: Luminescence Cell-Based Dose Confirmation HTS to Identify Inhibitors of Platelet Dense Granule Release. [Related pubchem assays: 1663 (Primary HTS), 1678 (Summary of Project)]. Format: functional.
Test [10] concerns the target Luciferin 4-monooxygenase (Photinus pyralis, UniProt P08659). Nature of the test: inhibition of purified Photinus pyralis luciferase – biochemical, luminescence, dose response (AID 1891).

Sequence of Luciferin 4-monooxygenase (P08659 whole entry): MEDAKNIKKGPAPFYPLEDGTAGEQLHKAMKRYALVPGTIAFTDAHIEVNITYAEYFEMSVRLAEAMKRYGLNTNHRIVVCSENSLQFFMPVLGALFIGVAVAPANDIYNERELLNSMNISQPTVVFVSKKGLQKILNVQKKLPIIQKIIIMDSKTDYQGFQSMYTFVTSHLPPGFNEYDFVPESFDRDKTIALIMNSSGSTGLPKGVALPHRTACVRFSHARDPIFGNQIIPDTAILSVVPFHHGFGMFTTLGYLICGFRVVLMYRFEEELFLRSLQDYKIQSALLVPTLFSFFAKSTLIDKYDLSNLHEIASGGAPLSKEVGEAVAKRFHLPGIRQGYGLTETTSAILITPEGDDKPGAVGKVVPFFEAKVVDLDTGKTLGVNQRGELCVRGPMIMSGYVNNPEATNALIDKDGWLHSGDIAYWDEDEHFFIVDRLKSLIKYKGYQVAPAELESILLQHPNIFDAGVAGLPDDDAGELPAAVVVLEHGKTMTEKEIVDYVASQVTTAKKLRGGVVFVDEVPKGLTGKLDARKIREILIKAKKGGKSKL

Regarding `CCC(C)(C)NC(=O)CN(Cc1ccc2c(c1)OCO2)C(=O)CCC(=O)Nc1nccs1`, on Aminopeptidase N, the IC50 is 87.6 µM (active).

`O=C(CN1C(=O)C2CCCCN2C(=O)c2ccccc21)N1CCCc2ccccc21` (centres undefined): the IC50 on Aminopeptidase N is 103 µM (active).

In the case of `Cc1ccccc1NC(=O)CCl`, the half-inhibitory concentration (IC50) against Prothrombin is recorded as > 50 µM (not active).

For the compound `CCc1cc2cc3c(cc2nc1SCC(=O)Nc1cc(OC)c(OC)cc1C(=O)O)OCO3`, the concentration for half-maximal inhibition (IC50) on Aminopeptidase N was 76 µM (active); at Leucine aminopeptidase, < 1 µM (active).

For `Cc1cccc(N2CCN(C(=O)C(Cc3ccccc3)n3cccc3)CC2)c1C` (centres undefined), the EC50 in [1] was 8.08 µM (active).

Regarding `O=C(CNS(=O)(=O)c1ccc2ccccc2c1)NCCc1ccccn1`, the EC50 in [2] is 9.44 µM (active).

Turning to `O=[N+]([O-])c1cncc([N+](=O)[O-])c1Nc1cccc(O)c1`, the CC50 was 27 µM (active) in test [3] and 15.7 µM (active) in [4]. Further, the EC50 on Protein RecA is 3.28 µM (active).

On to `O=C(Nc1ccccc1C(F)(F)F)c1ccc(CN2CCC(Cc3ccccc3)CC2)cc1`, for which the EC50 in [1] is 0.227 µM (active).

Take `COc1ccc(C)c2sc(NC(=O)CCS(=O)(=O)c3ccccc3)nc12`: the CC50 in test [3] was 23.1 µM (active); in [4] it was > 20 µM (active).

With `CCn1cc(C(=O)NCc2ccc3c(c2)OCO3)c(=O)c2cc(S(=O)(=O)N3CCOCC3)ccc21`, at Prothrombin, the IC50 is 0.158 µM (active).

`COc1cc(OC)cc(C(=O)NC2CCCN(Cc3ccc(Cl)cc3)C2)c1` (centres undefined): in test [2], the EC50 was 5.96 µM (active).

On to `Cc1ccc(Cn2c(SCCN3CCCCC3)nc3c2c(=O)n(C)c(=O)n3C)cc1`, for which the EC50 in test [2] was 11.9 µM (active).

On to `COc1cc(NC(=O)C2COc3ccccc3O2)c(OC)cc1Cl` (centres undefined), for which the EC50 in [1] is 8.09 µM (active).

`COc1cc(OC)cc(C(=O)N[C@H](C(=O)NCCc2c[nH]c3ccccc23)C(C)C)c1`: the figures for the AC50 in test [5], in test [6] and in test [7] were 16.8 µM (active), 11 µM (active) and 35.6 µM (active), respectively.

Consider `CC(=O)Nc1sc2c(c1C(c1ccc(F)cc1)N1CCOCC1)CCCC2` (centres undefined), for which the concentration at half-maximal activity (AC50) in test [5] was 11.6 µM (active); in test [6], 5.3 µM (active); in test [7] it was > 70 µM (inactive); in test [8], 32.8 µM (active).

In the case of `O=C1CC(C(=O)N(CC2CCCO2)C(C(=O)NC2CCCCC2)c2ccncc2)CS1` (centres undefined), the AC50 in [5] is 6.85 µM (active); in test [6], 7.23 µM (active); in test [7], 30.2 µM (active); in test [8] it was 37.8 µM (active).

On to `Cc1ccc(-c2ccc(/C=N/NC(=O)CN3CCOCC3)o2)cc1[N+](=O)[O-]`, for which, in test [3], the CC50 is > 40 µM (active). For the same compound, in “cells”, the IC50 is 22.5 µM (active).

Consider `Oc1ccc(-c2nc3ccccc3s2)cc1`, for which the IC50 on Prothrombin was > 50 µM (not active). Further, the EC50 in test [9] was 47.5 µM (active); in [10], 1.26 µM (active).

On to `Cn1c(N2CCNCC2)nc2ccccc21`, for which the half-maximal effective concentration (EC50) in test [2] was 0.149 µM (active).
